Reference: patent publication US9771360B2, “Cyano-substituted imidazo[1,2-A]pyridinecarboxamides and their use” (Bayer Pharma Aktiengesellschaft, priority 2014, dated 2017)

Biological target: T1, recombinant guanylate cyclase reporter cell line (Rattus norvegicus, UniProt P19686+P20595)
T1 construct: expressed in transfected cells
T1 sequence (P20595 1-619): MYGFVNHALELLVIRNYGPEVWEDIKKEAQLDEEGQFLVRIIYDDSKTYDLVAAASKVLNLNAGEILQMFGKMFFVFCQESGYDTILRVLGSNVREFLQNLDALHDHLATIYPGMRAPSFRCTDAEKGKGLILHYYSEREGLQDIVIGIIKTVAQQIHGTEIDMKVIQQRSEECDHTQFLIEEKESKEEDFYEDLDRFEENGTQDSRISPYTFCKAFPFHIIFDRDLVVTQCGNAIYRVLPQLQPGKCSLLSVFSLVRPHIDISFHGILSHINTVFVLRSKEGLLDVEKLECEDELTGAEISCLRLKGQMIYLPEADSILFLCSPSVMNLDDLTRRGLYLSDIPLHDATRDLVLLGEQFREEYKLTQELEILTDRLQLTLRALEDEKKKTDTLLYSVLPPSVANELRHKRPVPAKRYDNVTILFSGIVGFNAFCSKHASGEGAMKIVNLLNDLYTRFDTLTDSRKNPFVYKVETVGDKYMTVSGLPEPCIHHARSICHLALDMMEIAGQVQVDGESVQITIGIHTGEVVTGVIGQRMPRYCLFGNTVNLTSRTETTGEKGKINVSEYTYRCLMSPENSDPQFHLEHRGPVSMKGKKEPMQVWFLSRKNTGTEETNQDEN
T1 sequence (P19686 1-690): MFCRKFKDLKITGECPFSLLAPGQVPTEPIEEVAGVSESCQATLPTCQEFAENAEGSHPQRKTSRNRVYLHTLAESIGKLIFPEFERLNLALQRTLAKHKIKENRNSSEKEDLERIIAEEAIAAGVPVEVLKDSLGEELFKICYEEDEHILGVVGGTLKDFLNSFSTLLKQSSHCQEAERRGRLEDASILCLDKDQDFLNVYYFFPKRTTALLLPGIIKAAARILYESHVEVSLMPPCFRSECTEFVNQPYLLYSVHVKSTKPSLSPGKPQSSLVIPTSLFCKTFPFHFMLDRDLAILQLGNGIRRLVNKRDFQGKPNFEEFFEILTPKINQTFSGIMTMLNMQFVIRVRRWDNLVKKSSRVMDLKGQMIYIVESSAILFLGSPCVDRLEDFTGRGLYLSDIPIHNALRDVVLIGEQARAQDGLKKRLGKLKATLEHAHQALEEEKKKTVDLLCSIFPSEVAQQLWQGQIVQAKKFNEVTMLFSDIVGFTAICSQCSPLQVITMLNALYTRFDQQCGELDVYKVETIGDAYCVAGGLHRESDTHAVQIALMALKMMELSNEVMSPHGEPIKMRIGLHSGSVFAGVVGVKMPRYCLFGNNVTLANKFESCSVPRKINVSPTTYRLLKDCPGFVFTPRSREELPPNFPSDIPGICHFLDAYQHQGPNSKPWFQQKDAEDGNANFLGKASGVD
Assay: Effect on a recombinant guanylate cyclase reporter cell line (B-2)
Assay type: cell-based
Details: MEC = minimum effective concentration; in some cases mean values from individual determinations
Protocol: B-2. Effect on a Recombinant Guanylate Cyclase Reporter Cell Line
The cellular activity of the compounds according to the invention is determined using a recombinant guanylate cyclase reporter cell line, as described in F. Wunder et al., Anal. Biochem. 339, 104-112 (2005).
Representative MEC values (MEC=minimum effective concentration) for the compounds of the invention are shown in the table below (in some cases as mean values from individual determinations): […]

SMILES | MEC [µM]
Cc1cc(OCc2c(F)cccc2F)c2nc(C)c(C(=O)NC(C)(C#N)C3CC3)n2c1 (racemic) [Example 6, rac-N-(1-cyano-1-cyclopropylethyl)-8-[(2,6-difluorobenzyl)oxy]-2,6-dimethylimidazo[1,2-a]pyridine-3-carboxamide] | 0.1
Cc1nc2c(OCc3c(F)cccc3F)cc(Cl)cn2c1C(=O)NC(C#N)c1ccc(Cl)cc1 (racemic) [Example 29, rac-6-chloro-N-[(4-chlorophenyl)(cyano)methyl]-8-[(2,6-difluorobenzyl)oxy]-2-methylimidazo[1,2-a]pyridine-3-carboxamide] | 1
Cc1cc(OCc2c(F)cccc2F)c2nc(C)c(C(=O)NCC#N)n2c1 [Example 2, N-(cyanomethyl)-8-[(2,6-difluorobenzyl)oxy]-2,6-dimethylimidazo[1,2-a]pyridine-3-carboxamide] | 0.3
Cc1cc(OCc2c(F)cccc2F)c2nc(C)c(C(=O)NC(C)(C)C#N)n2c1 [Example 3, N-(2-cyanopropan-2-yl)-8-[(2,6-difluorobenzyl)oxy]-2,6-dimethylimidazo[1,2-a]pyridine-3-carboxamide] | 0.1
Cc1cc(OCc2c(F)cccc2F)c2nc(C)c(C(=O)NC3(C#N)CC3)n2c1 [Example 4, N-(1-cyanocyclopropyl)-8-[(2,6-difluorobenzyl)oxy]-2,6-dimethylimidazo[1,2-a]pyridine-3-carboxamide] | 0.3
Cc1cc(OCc2c(F)cccc2F)c2nc(C)c(C(=O)NC(C#N)c3ccc(Cl)cc3)n2c1 (racemic) [Example 8, rac-N-[(4-chlorophenyl)(cyano)methyl]-8-[(2,6-difluorobenzyl)oxy]-2,6-dimethylimidazo[1,2-a]pyridine-3-carboxamide] | 0.1
Cc1cc(OCc2c(F)cccc2F)c2nc(C)c(C(=O)NCCC#N)n2c1 [Example 9, N-(2-cyanoethyl)-8-[(2,6-difluorobenzyl)oxy]-2,6-dimethylimidazo[1,2-a]pyridine-3-carboxamide] | 0.3
Cc1cc(OCc2c(F)cccc2F)c2nc(C)c(C(=O)NC(C)C#N)n2c1 (racemic) [Example 1, rac-N-(1-Cyanoethyl)-8-[(2,6-difluorobenzyl)oxy]-2,6-dimethylimidazo[1,2-a]pyridine-3-carboxamide] | 0.55
CCC(CC#N)NC(=O)c1c(C)nc2c(OCc3c(F)cccc3F)cc(C)cn12 (racemic) [Example 13, rac-N-(1-cyanobutan-2-yl)-8-[(2,6-difluorobenzyl)oxy]-2,6-dimethylimidazo[1,2-a]pyridine-3-carboxamide] | 1
Cc1cc(OCc2c(F)cncc2F)c2nc(C)c(C(=O)NC(C#N)c3ccc(Cl)cc3)n2c1 (racemic) [Example 30, rac-N-[(4-chlorophenyl)(cyano)methyl]-8-[(3,5-difluoropyridin-4-yl)methoxy]-2,6-dimethylimidazo[1,2-a]pyridine-3-carboxamide] | 1
Cc1cc(OCc2c(F)cccc2F)c2nc(C)c(C(=O)NC(C)C#N)n2c1 (single isomer, unassigned) [Example 16, ent-N-(1-Cyanoethyl)-8-[(2,6-difluorobenzyl)oxy]-2,6-dimethylimidazo[1,2-a]pyridine-3-carboxamide] | 0.3
Cc1cc(OCc2c(F)cccc2F)c2nc(C)c(C(=O)NC3(C#N)CCC3)n2c1 [Example 5, N-(1-cyanocyclobutyl)-8-[(2,6-difluorobenzyl)oxy]-2,6-dimethylimidazo[1,2-a]pyridine-3-carboxamide] | 0.03
COCC(C)(C#N)NC(=O)c1c(C)nc2c(OCc3c(F)cccc3F)cc(C)cn12 (racemic) [Example 7, rac-N-(2-cyano-1-methoxypropan-2-yl)-8-[(2,6-difluorobenzyl)oxy]-2,6-dimethylimidazo[1,2-a]pyridine-3-carboxamide] | 0.3
Cc1cc(OCc2c(F)cccc2F)c2nc(C)c(C(=O)NCCCCCC#N)n2c1 [Example 10, N-(5-cyanopentyl)-8-[(2,6-difluorobenzyl)oxy]-2,6-dimethylimidazo[1,2-a]pyridine-3-carboxamide] | 0.1
Cc1cc(OCCC(C)C)c2nc(C)c(C(=O)NC(C#N)c3ccc(Cl)cc3)n2c1 (racemic) [Example 25, rac-N-[(4-chlorophenyl)(cyano)methyl]-2,6-dimethyl-8-(3-methylbutoxy)imidazo[1,2-a]pyridine-3-carboxamide] | 3
COc1ccc(F)c(COc2cc(C)cn3c(C(=O)NC(C#N)c4ccc(Cl)cc4)c(C)nc23)c1F (racemic) [Example 22, rac-N-[(4-chlorophenyl)(cyano)methyl]-8-[(2,6-difluoro-3-methoxybenzyl)oxy]-2,6-dimethylimidazo[1,2-a]pyridine-3-carboxamide] | 3

Second part, the molecule after the results:

MEC [µM] | SMILES
3 | Cc1cc(OCc2c(F)cccc2F)c2nc(C)c(C(=O)NCC(N)CCCC#N)n2c1 (single isomer, unassigned) [Example 46, ent-N-(2-Amino-5-cyanopentyl)-8-[(2,6-difluorobenzyl)oxy]-2,6-dimethylimidazo[1,2-a]pyridine-3-carboxamide]
1 | Cc1cc(OCc2c(F)cccc2F)c2nc(C)c(C(=O)NCC(N)CCC#N)n2c1 (racemic) [Example 44, rac-N-(2-Amino-4-cyanobutyl)-8-[(2,6-difluorobenzyl)oxy]-2,6-dimethylimidazo[1,2-a]pyridine-3-carboxamide]
1 | Cc1cc(OCc2c(F)cccc2F)c2nc(C)c(C(=O)NCC(N)CC#N)n2c1 (single isomer, unassigned) [Example 42, ent-N-(2-Amino-3-cyanopropyl)-8-[(2,6-difluorobenzyl)oxy]-2,6-dimethylimidazo[1,2-a]pyridine-3-carboxamide]
2 | Cc1cc(OCc2c(F)cccc2F)c2nc(C)c(C(=O)NCC(N)CCCC#N)n2c1 (racemic) [Example 45, rac-N-(2-Amino-5-cyanopentyl)-8-[(2,6-difluorobenzyl)oxy]-2,6-dimethylimidazo[1,2-a]pyridine-3-carboxamide]
0.3 | Cc1cc(OCc2c(F)cccc2F)c2nc(C)c(C(=O)NC3CNCC(C#N)C3)n2c1 (centres unmarked) [Example 38, N-(5-Cyanopiperidin-3-yl)-8-[(2,6-difluorobenzyl)oxy]-2,6-dimethylimidazo[1,2-a]pyridine-3-carboxamide]
1 | Cc1cc(OCc2c(F)cccc2F)c2nc(C)c(C(=O)Nc3ccc(CC#N)cc3)n2c1 [Example 36, N-[4-(cyanomethyl)phenyl]-8-[(2,6-difluorobenzyl)oxy]-2,6-dimethylimidazo[1,2-a]pyridine-3-carboxamide]
1 | Cc1cc(OCc2c(F)cccc2F)c2nc(C)c(C(=O)NC(CN)CC#N)n2c1 (racemic) [Example 39, rac-N-(1-Amino-3-cyanopropan-2-yl)-8-[(2,6-difluorobenzyl)oxy]-2,6-dimethylimidazo[1,2-a]pyridine-3-carboxamide]
1 | Cc1cc(OCc2c(F)cccc2F)c2nc(C)c(C(=O)Nc3[nH]ncc3C#N)n2c1 [Example 33, N-(4-cyano-1H-pyrazol-5-yl)-8-[(2,6-difluorobenzyl)oxy]-2,6-dimethylimidazo[1,2-a]pyridine-3-carboxamide]
0.3 | COc1ccc(NC(=O)c2c(C)nc3c(OCc4c(F)cccc4F)cc(C)cn23)cc1C#N [Example 37, N-(3-cyano-4-methoxyphenyl)-8-[(2,6-difluorobenzyl)oxy]-2,6-dimethylimidazo[1,2-a]pyridine-3-carboxamide]
1 | CCOc1ccc(NC(=O)c2c(C)nc3c(OCc4c(F)cccc4F)cc(C)cn23)cc1C#N [Example 32, N-(3-Cyano-4-ethoxyphenyl)-8-[(2,6-difluorobenzyl)oxy]-2,6-dimethylimidazo[1,2-a]pyridine-3-carboxamide]
